From ChEMBL document CHEMBL4706545, “Antiproliferative effect of mitochondria-targeting allobetulin 1,2,3-triazolium salt derivatives and their mechanism of inducing apoptosis of cancer cells” (Eur J Med Chem, 2020)

Columns and labels:
HepG2 = assay: Cytotoxicity against human HepG2 cells assessed as reduction in cell viability incubated for 48 hrs by MTT assay; assay type: functional, cell-based; settings: HepG2, 48 h
SGC-7901 = assay: Cytotoxicity against human SGC-7901 cells assessed as reduction in cell viability incubated for 48 hrs by MTT assay; assay type: functional, cell-based; settings: SGC-7901, 48 h
L02 = assay: Cytotoxicity against human HL7702 cells assessed as reduction in cell viability incubated for 48 hrs by MTT assay; assay type: ADME, cell-based; settings: L02, 48 h
ECa-109 cell line = assay: Cytotoxicity against human ECa-109 cells assessed as reduction in cell viability incubated for 48 hrs by MTT assay; assay type: functional, cell-based; settings: ECa-109, 48 h
HeLa = assay: Cytotoxicity against human HeLa cells assessed as reduction in cell viability incubated for 48 hrs by MTT assay; assay type: functional, cell-based

C[n+]1nn(Cc2ccc(Cl)c(Cl)c2)c2c1C[C@]1(C)[C@H]3CC[C@@H]4[C@H]5[C@H]6OC[C@@]5(CCC6(C)C)CC[C@@]4(C)[C@]3(C)CC[C@H]1C2(C)C
IC50 (HepG2): 2960 nM | IC50 (SGC-7901): 2990 nM | IC50 (L02): 2290 nM | IC50 (ECa-109 cell line): 3030 nM | IC50 (HeLa): 2830 nM

C[n+]1nn(Cc2ccc(C(F)(F)F)cc2)c2c1C[C@]1(C)[C@H]3CC[C@@H]4[C@H]5[C@H]6OC[C@@]5(CCC6(C)C)CC[C@@]4(C)[C@]3(C)CC[C@H]1C2(C)C
IC50 (HepG2): 2490 nM | IC50 (SGC-7901): 2840 nM | IC50 (L02): 2260 nM | IC50 (ECa-109 cell line): 3180 nM | IC50 (HeLa): 3060 nM

CCCCCCCCn1n[n+](C)c2c1C(C)(C)[C@@H]1CC[C@]3(C)[C@H](CC[C@@H]4[C@H]5[C@H]6OC[C@@]5(CCC6(C)C)CC[C@]43C)[C@@]1(C)C2
IC50 (HepG2): 2010 nM | IC50 (SGC-7901): 2180 nM | IC50 (L02): 1340 nM | IC50 (ECa-109 cell line): 3000 nM | IC50 (HeLa): 2550 nM

C[n+]1nn(CC(c2ccccc2)c2ccccc2)c2c1C[C@]1(C)[C@H]3CC[C@@H]4[C@H]5[C@H]6OC[C@@]5(CCC6(C)C)CC[C@@]4(C)[C@]3(C)CC[C@H]1C2(C)C
IC50 (HepG2): 2960 nM | IC50 (SGC-7901): 2180 nM | IC50 (L02): 1610 nM | IC50 (ECa-109 cell line): 2280 nM | IC50 (HeLa): 2670 nM

CC1(C)CC[C@]23CC[C@]4(C)[C@H](CC[C@@H]5[C@@]6(C)Cc7nnn(Cc8ccccn8)c7C(C)(C)[C@@H]6CC[C@]54C)[C@H]2[C@H]1OC3
IC50 (HepG2): > 80000 nM | IC50 (SGC-7901): > 80000 nM | IC50 (L02): > 80000 nM | IC50 (ECa-109 cell line): > 80000 nM | IC50 (HeLa): > 80000 nM

CCCCCCn1n[n+](C)c2c1C(C)(C)[C@@H]1CC[C@]3(C)[C@H](CC[C@@H]4[C@H]5[C@H]6OC[C@@]5(CCC6(C)C)CC[C@]43C)[C@@]1(C)C2
IC50 (HepG2): 1930 nM | IC50 (SGC-7901): 1650 nM | IC50 (L02): 1330 nM | IC50 (ECa-109 cell line): 3080 nM | IC50 (HeLa): 2450 nM

Cc1ccc(Cn2nnc3c2C(C)(C)[C@@H]2CC[C@]4(C)[C@H](CC[C@@H]5[C@H]6[C@H]7OC[C@@]6(CCC7(C)C)CC[C@]54C)[C@@]2(C)C3)cc1
IC50 (HepG2): 26600 nM | IC50 (SGC-7901): 20300 nM | IC50 (L02): 22700 nM | IC50 (ECa-109 cell line): 34800 nM | IC50 (HeLa): 32300 nM

CC1(C)CC[C@]23CC[C@]4(C)[C@H](CC[C@@H]5[C@@]6(C)Cc7nnn(Cc8ccccc8Cl)c7C(C)(C)[C@@H]6CC[C@]54C)[C@H]2[C@H]1OC3
IC50 (HepG2): 56200 nM | IC50 (SGC-7901): 49900 nM | IC50 (L02): 40500 nM | IC50 (ECa-109 cell line): 58900 nM | IC50 (HeLa): 41300 nM

CC1(C)CC[C@]23CC[C@]4(C)[C@H](CC[C@@H]5[C@@]6(C)Cc7nnn(Cc8ccccc8)c7C(C)(C)[C@@H]6CC[C@]54C)[C@H]2[C@H]1OC3
IC50 (HepG2): 59400 nM | IC50 (SGC-7901): 55700 nM | IC50 (L02): 38500 nM | IC50 (ECa-109 cell line): 53200 nM | IC50 (HeLa): > 80000 nM

CC1(C)CC[C@]23CC[C@]4(C)[C@H](CC[C@@H]5[C@@]6(C)Cc7nnn(Cc8ccc(F)cc8F)c7C(C)(C)[C@@H]6CC[C@]54C)[C@H]2[C@H]1OC3
IC50 (HepG2): 6560 nM | IC50 (SGC-7901): 9020 nM | IC50 (L02): 7470 nM | IC50 (ECa-109 cell line): 10900 nM | IC50 (HeLa): 10200 nM

COc1ccc(CCn2n[n+](C)c3c2C(C)(C)[C@@H]2CC[C@]4(C)[C@H](CC[C@@H]5[C@H]6[C@H]7OC[C@@]6(CCC7(C)C)CC[C@]54C)[C@@]2(C)C3)cc1
IC50 (HepG2): 2910 nM | IC50 (SGC-7901): 2390 nM | IC50 (L02): 2090 nM | IC50 (ECa-109 cell line): 1970 nM | IC50 (HeLa): 2850 nM

COc1cccc(Cn2n[n+](C)c3c2C(C)(C)[C@@H]2CC[C@]4(C)[C@H](CC[C@@H]5[C@H]6[C@H]7OC[C@@]6(CCC7(C)C)CC[C@]54C)[C@@]2(C)C3)c1
IC50 (HepG2): 2180 nM | IC50 (SGC-7901): 1810 nM | IC50 (L02): 1720 nM | IC50 (ECa-109 cell line): 2810 nM | IC50 (HeLa): 2330 nM

C[n+]1nn(Cc2ccccc2Cl)c2c1C[C@]1(C)[C@H]3CC[C@@H]4[C@H]5[C@H]6OC[C@@]5(CCC6(C)C)CC[C@@]4(C)[C@]3(C)CC[C@H]1C2(C)C
IC50 (HepG2): 3030 nM | IC50 (SGC-7901): 2240 nM | IC50 (L02): 1300 nM | IC50 (ECa-109 cell line): 1980 nM | IC50 (HeLa): 2710 nM

C[n+]1nn(CCc2c[nH]c3ccccc23)c2c1C[C@]1(C)[C@H]3CC[C@@H]4[C@H]5[C@H]6OC[C@@]5(CCC6(C)C)CC[C@@]4(C)[C@]3(C)CC[C@H]1C2(C)C
IC50 (HepG2): 3170 nM | IC50 (SGC-7901): 3050 nM | IC50 (L02): 2900 nM | IC50 (ECa-109 cell line): 3130 nM | IC50 (HeLa): 3190 nM

CCCCn1n[n+](C)c2c1C(C)(C)[C@@H]1CC[C@]3(C)[C@H](CC[C@@H]4[C@H]5[C@H]6OC[C@@]5(CCC6(C)C)CC[C@]43C)[C@@]1(C)C2
IC50 (HepG2): 3970 nM | IC50 (SGC-7901): 3250 nM | IC50 (L02): 2200 nM | IC50 (ECa-109 cell line): 5140 nM | IC50 (HeLa): 3990 nM
